Converted amounts (≈) assume the structure as drawn. Like-named read-outs stand apart in the source and are kept apart here.
How the values were obtained:
E. coli [1] = assay: Minimum bactericidal concentration; type: cell-based, Escherichia coli; settings: for MBC: Escherichia coli
E. faecalis [2] = assay: Minimum bactericidal concentration; type: cell-based, Enterococcus faecalis; settings: for MBC: Enterococcus faecalis
K. pneumoniae [3] = assay: Growth inhibition screening (broth dilution); type: cell-based, Klebsiella pneumonia; settings: for inhibition at 250 µg/mL: Klebsiella pneumoniae
Method: (§1) In vitro screening of the compounds (PS1–14) was performed to assess the antibacterial activity against three Gram-positive (Staphylococcus aureus, Enterococcus faecalis and Bacillus subtilis,) and three Gram-negative (Pseudomonas aeruginosa, Klebsiella pneumonia and Escherichia coli) bacterial strains using the standard NCCLS broth dilution assay. The study’s standard drugs were ciprofloxacin (CIP) and ampicillin (AMP). Compounds were dissolved in a polar solvent (DMSO) and distributed into a 96-well plate in 200 µL of nutrient broth medium, with a final concentration of the compounds […] in each well. The bacterial cells (about 2.5 × 10^5 cells/mL) were inoculated into each well and incubated at 37 °C overnight. After incubation, the growth was measured by turbidity of the culture at 590 nm by spectrophotometer.

E. faecalis [4] = assay: Combination study with AMP or CIP
SpMetAP1a = SpMetAP1a (Streptococcus pneumoniae, UniProt Q8DPV1); assay: MetAP enzyme inhibition, Morrison Ki (Met-AMC fluorescence); type: biochemical; settings: Morrison Ki method
SpMetAP1a, sequence (Q8DPV1 entry or part of it): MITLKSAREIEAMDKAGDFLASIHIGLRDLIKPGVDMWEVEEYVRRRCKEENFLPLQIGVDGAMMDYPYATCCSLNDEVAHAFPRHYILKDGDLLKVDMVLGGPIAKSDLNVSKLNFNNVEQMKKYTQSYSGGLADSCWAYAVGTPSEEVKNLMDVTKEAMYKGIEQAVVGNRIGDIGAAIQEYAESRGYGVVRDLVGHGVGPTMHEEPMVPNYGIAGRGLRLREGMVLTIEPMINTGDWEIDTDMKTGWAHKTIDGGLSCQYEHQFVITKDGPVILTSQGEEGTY

K. pneumoniae [5] = assay: Minimum bactericidal concentration; type: cell-based, Klebsiella pneumonia; settings: for MBC: Klebsiella pneumoniae
S. aureus [6] = assay: Combination study with AMP or CIP
P. aeruginosa [7] = assay: Minimum inhibitory concentration (broth dilution); type: cell-based; settings: Pseudomonas aeruginosa, alone
P. aeruginosa [8] = assay: Minimum bactericidal concentration; type: cell-based, Pseudomonas aeruginosa; settings: for MBC: Pseudomonas aeruginosa
S. aureus [9] = assay: Minimum inhibitory concentration (broth dilution); type: cell-based; settings: Staphylococcus aureus, alone
E. coli [10] = assay: Growth inhibition screening (broth dilution); type: cell-based, Escherichia coli
Method: as §1

MtMetAP1c = biological target: T1, MtMetAP1c (Mycobacterium tuberculosis, UniProt P9WK19); assay: MetAP enzyme inhibition, Morrison Ki (Met-AMC fluorescence); type: biochemical, M. tuberculosis; settings: Morrison Ki method
T1 construct: made in house
T1 sequence (P9WK19 whole entry): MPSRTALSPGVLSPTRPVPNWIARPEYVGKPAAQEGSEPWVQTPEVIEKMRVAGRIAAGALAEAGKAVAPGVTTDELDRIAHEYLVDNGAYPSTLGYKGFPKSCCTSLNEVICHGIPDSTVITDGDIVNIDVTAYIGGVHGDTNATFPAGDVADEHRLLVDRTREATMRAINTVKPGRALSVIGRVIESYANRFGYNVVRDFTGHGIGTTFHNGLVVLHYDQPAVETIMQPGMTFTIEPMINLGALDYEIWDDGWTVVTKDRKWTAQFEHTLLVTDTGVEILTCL
Method: MetAP appears to serve a vital role in the co- or post-translational modification of proteins, making it essential for bacterial cell metabolism and survival. In this study, all enzymes, which were used for this study, including MtMetAP1c (M. tuberculosis), EfMetAP1a (E. faecalis), SpMetAP1a (S. pneumoniae) and HsMetAP1b (H. sapiens) enzymes, were expressed and purified in our lab as previously reported. All compounds prepared 10 mM stocks in DMSO and were used for enzyme inhibition studies. The concentration of each enzyme is adjusted such that they have similar reaction rates (HsMetAp1b, 1 µM; SpMetAP1a, 5 µM; EfMetAP1a, 1 µM; MtMetAP1c, 1 µM;) as reported earlier. All assays were performed in […] reaction containing 50 mM HEPES (pH 7.5 for SpMetAP1a and HsMetAP1b; 8.0 for EfMetAP1a, MtMetAP1c, […]), 150 mM NaCl, and CoCl2 (three molar equivalents of corresponding enzymes). The reaction was started by adding 50 μM L-Methionine 7-amido-4-methyl coumarin (Met-AMC) and continuously monitoring the fluorescence of released 7-amino-4-methyl coumarin (AMC) (380 nm excitation and 460 nm emission) in a microplate multimode reader (TECAN, Austria). The maximum percentage of inhibition against enzymes is calculated at […] compound concentration. […] The Ki values were determined according to the Morrison method using three different concentrations of substrates and ten different concentrations of the inhibitor. All experiments were performed in triplicate. GraphPad Prism version 8.0.0 (San Diego, CA, USA) was used to determine all the kinetic parameters.

K. pneumoniae [11] = assay: Minimum inhibitory concentration (broth dilution); type: cell-based, Klebsiella pneumonia; settings: Klebsiella pneumoniae, alone, read-out: MIC
B. subtilis [12] = assay: Minimum bactericidal concentration; type: cell-based, Bacillus subtilis; settings: for MBC: Bacillus subtilis
EfMetAP1a = EfMetAP1a (Enterococcus faecalis, UniProt Q832M5); assay: MetAP enzyme inhibition, Morrison Ki (Met-AMC fluorescence); type: biochemical; settings: Morrison Ki method
EfMetAP1a, sequence (Q832M5 entry or part of it): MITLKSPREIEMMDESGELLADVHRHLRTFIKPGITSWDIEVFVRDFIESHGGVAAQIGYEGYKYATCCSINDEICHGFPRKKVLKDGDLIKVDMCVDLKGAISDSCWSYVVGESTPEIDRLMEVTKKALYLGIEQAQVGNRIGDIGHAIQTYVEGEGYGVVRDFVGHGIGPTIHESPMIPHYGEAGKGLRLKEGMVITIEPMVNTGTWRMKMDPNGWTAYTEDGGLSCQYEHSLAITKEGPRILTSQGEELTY

E. coli [13] = assay: Combination study with AMP or CIP
K. pneumoniae [14] = assay: Combination study with AMP or CIP
P. aeruginosa [15] = assay: Growth inhibition screening (broth dilution); type: cell-based, Pseudomonas aeruginosa
Method: as §1

E. coli [16] = assay: Minimum inhibitory concentration (broth dilution); type: cell-based, Escherichia coli; settings: Escherichia coli, alone, read-out: MIC
P. aeruginosa [17] = assay: Combination study with AMP or CIP
B. subtilis [18] = assay: Growth inhibition screening (broth dilution); type: cell-based, Bacillus subtilis
Method: as §1

E. faecalis [19] = assay: Growth inhibition screening (broth dilution); type: cell-based, Enterococcus faecalis; settings: for inhibition at 250 µg/mL: Enterococcus faecalis
Method: as §1

B. subtilis [20] = assay: Minimum inhibitory concentration (broth dilution); type: cell-based; settings: Bacillus subtilis, alone
HsMetAP1b = biological target: T2, HsMetAP1b (Homo sapiens, UniProt P53582); assay: MetAP enzyme inhibition, Morrison Ki (Met-AMC fluorescence); type: biochemical, H. sapiens; settings: Morrison Ki method
T2 construct: made in house

B. subtilis [21] = assay: Combination study with AMP or CIP
S. aureus [22] = assay: Growth inhibition screening (broth dilution); type: cell-based, Staphylococcus aureus; settings: for inhibition at 250 µg/mL: Staphylococcus aureus
Method: as §1

E. faecalis [23] = assay: Minimum inhibitory concentration (broth dilution); type: cell-based; settings: Enterococcus faecalis, alone
S. aureus [24] = assay: Minimum bactericidal concentration; type: cell-based, Staphylococcus aureus; settings: for MBC: Staphylococcus aureus

O=C1Nc2cc(Cl)c(F)cc2/C1=N\NC(=O)c1cc(-c2cccc(Br)c2)n[nH]1 [PS6, (E)-3-(3-Bromophenyl)-N′-(6-Chloro-5-Fluoro-2-Oxoindolin-3-Ylidene)-1H-Pyrazole-5-Carbohydrazide]
MBC/MIC Ratio (R*) (E. coli [1]): 8
MBC (E. coli [1]): 256 µg/mL (≈ 553 µM)
MBC/MIC Ratio (R*) (E. faecalis [2]): 2
MBC (E. faecalis [2]): 32 µg/mL (≈ 69.2 µM)
inhibition at 250 µg/mL (K. pneumoniae [3]): > 70%
% Growth Inhibition at 250 µg/mL (K. pneumoniae [3]; listed as C00006): 80%
MIC in Combination (E. faecalis [4]; combination PS6 + AMP): 1 µg/mL
MIC in Combination (E. faecalis [4]; combination PS6 + CIP): 4 µg/mL
FICI (E. faecalis [4]; combination with AMP): 0.09
FICI (E. faecalis [4]; combination with CIP): 0.31
Ki (SpMetAP1a): 2550 ± 110 nM
MBC/MIC Ratio (R*) (K. pneumoniae [5]): 2
MBC (K. pneumoniae [5]): 128 µg/mL (≈ 277 µM)
MIC in Combination (S. aureus [6]; combination PS6 + AMP): 1 µg/mL
MIC in Combination (S. aureus [6]; combination PS6 + CIP): 8 µg/mL
FICI (S. aureus [6]; combination with AMP): 0.31
FICI (S. aureus [6]; combination with CIP): 1
Mode of Interaction (S. aureus [6]; combination with CIP): Indifferent (in between 0.5 and 4)
MIC (P. aeruginosa [7]): 32 µg/mL (≈ 69.2 µM)
MBC/MIC Ratio (R*) (P. aeruginosa [8]): 8
MBC (P. aeruginosa [8]): 256 µg/mL (≈ 553 µM)
MIC (S. aureus [9]): 16 µg/mL (≈ 34.6 µM)
% Growth Inhibition at 250 µg/mL (E. coli [10]): more than 70%
% Growth Inhibition at 250 µg/mL (E. coli [10]; listed as C00006): 97%
Ki (MtMetAP1c): 740 ± 60 nM
MIC (K. pneumoniae [11]): 64 µg/mL (≈ 138 µM)
MBC/MIC Ratio (R*) (B. subtilis [12]): 2
MBC (B. subtilis [12]): 16 µg/mL (≈ 34.6 µM)
Ki (EfMetAP1a): 1650 ± 310 nM
melting point: 191 to 194 °C
MIC in Combination (E. coli [13]; combination PS6 + AMP): 4 µg/mL
MIC in Combination (E. coli [13]; combination PS6 + CIP): 8 µg/mL
FICI (E. coli [13]; combination with AMP): 0.25
FICI (E. coli [13]; combination with CIP): 0.31
MIC in Combination (K. pneumoniae [14]; combination PS6 + AMP): 4 µg/mL
MIC in Combination (K. pneumoniae [14]; combination PS6 + CIP): 8 µg/mL
FICI (K. pneumoniae [14]; combination with AMP): 0.18
FICI (K. pneumoniae [14]; combination with CIP): 0.62
Mode of Interaction (K. pneumoniae [14]; combination with CIP): Indifferent (in between 0.5 and 4)
% Growth Inhibition at 250 µg/mL (P. aeruginosa [15]): more than 70%
% Growth Inhibition at 250 µg/mL (P. aeruginosa [15]; listed as C00006): 100%
MIC (E. coli [16]): 32 µg/mL (≈ 69.2 µM)
MIC in Combination (P. aeruginosa [17]; combination PS6 + AMP): 4 µg/mL
MIC in Combination (P. aeruginosa [17]; combination PS6 + CIP): 4 µg/mL
FICI (P. aeruginosa [17]; combination with AMP): 0.25
FICI (P. aeruginosa [17]; combination with CIP): 0.25
Mode of Interaction (P. aeruginosa [17]; combination with CIP): Synergistic (FICI value is less than or equal to 0.5)
% Growth Inhibition at 250 µg/mL (B. subtilis [18]): more than 70%
% Growth Inhibition at 250 µg/mL (B. subtilis [18]; listed as C00006): 100%
inhibition at 250 µg/mL (E. faecalis [19]): > 70%
% Growth Inhibition at 250 µg/mL (E. faecalis [19]; listed as C00006): 73%
MIC (B. subtilis [20]): 8 µg/mL (≈ 17.3 µM)
Ki (HsMetAP1b): 172000 ± 4800 nM
MIC in Combination (B. subtilis [21]; combination PS6 + AMP): 2 µg/mL
MIC in Combination (B. subtilis [21]; combination PS6 + CIP): 8 µg/mL
FICI (B. subtilis [21]; combination with AMP): 0.75
FICI (B. subtilis [21]; combination with CIP): 1.06
Mode of Interaction (B. subtilis [21]; combination with CIP): Indifferent (in between 0.5 and 4)
inhibition at 250 µg/mL (S. aureus [22]): 61%
MIC (E. faecalis [23]): 16 µg/mL (≈ 34.6 µM)
MBC/MIC Ratio (R*) (S. aureus [24]): 32
MBC (S. aureus [24]): 512 µg/mL (≈ 1110 µM)

COc1ccc2c(c1)/C(=N\NC(=O)c1cc(-c3cccc(Br)c3)n[nH]1)C(=O)N2 [PS11, (E)-3-(3-Bromophenyl)-N′-(5-Methoxy-2-Oxoindolin-3-Ylidene)-1H-Pyrazole-5-Carbohydrazide]
MBC/MIC Ratio (R*) (E. coli [1]): 2
MBC (E. coli [1]): 256 µg/mL (≈ 581 µM)
MBC/MIC Ratio (R*) (E. faecalis [2]): 1
MBC (E. faecalis [2]): 32 µg/mL (≈ 72.7 µM)
inhibition at 250 µg/mL (K. pneumoniae [3]): ≥ 94%
% Growth Inhibition at 250 µg/mL (K. pneumoniae [3]; listed as C00011): 95%
Ki (SpMetAP1a): 1360 ± 170 nM
MBC/MIC Ratio (R*) (K. pneumoniae [5]): 1
MBC (K. pneumoniae [5]): 32 µg/mL (≈ 72.7 µM)
MIC (P. aeruginosa [7]): 32 µg/mL (≈ 72.7 µM)
MBC/MIC Ratio (R*) (P. aeruginosa [8]): 4
MBC (P. aeruginosa [8]): 128 µg/mL (≈ 291 µM)
MIC (S. aureus [9]): 128 µg/mL (≈ 291 µM)
inhibition at 250 µg/mL (E. coli [10]; Escherichia coli): ≥ 94%
% Growth Inhibition at 250 µg/mL (E. coli [10]; listed as C00011): 97%
Ki (MtMetAP1c): 1610 ± 250 nM
MIC (K. pneumoniae [11]): 32 µg/mL (≈ 72.7 µM)
MBC/MIC Ratio (R*) (B. subtilis [12]): 2
MBC (B. subtilis [12]): 512 µg/mL (≈ 1160 µM)
Ki (EfMetAP1a): 2490 ± 310 nM
melting point: 245 to 248 °C
inhibition at 250 µg/mL (P. aeruginosa [15]; Pseudomonas aeruginosa): ≥ 94%
% Growth Inhibition at 250 µg/mL (P. aeruginosa [15]; listed as C00011): 96%
MIC (E. coli [16]): 128 µg/mL (≈ 291 µM)
inhibition at 250 µg/mL (B. subtilis [18]; Bacillus subtilis): ≥ 94%
% Growth Inhibition at 250 µg/mL (B. subtilis [18]; listed as C00011): 100%
inhibition at 250 µg/mL (E. faecalis [19]): ≥ 94%
% Growth Inhibition at 250 µg/mL (E. faecalis [19]; listed as C00011): 100%
MIC (B. subtilis [20]): > 256 µg/mL
Ki (HsMetAP1b): 15200 ± 3200 nM
inhibition at 250 µg/mL (S. aureus [22]): ≥ 94%
% Growth Inhibition at 250 µg/mL (S. aureus [22]; listed as C00011): 98%
MIC (E. faecalis [23]): 32 µg/mL (≈ 72.7 µM)
MBC/MIC Ratio (R*) (S. aureus [24]): >4
MBC (S. aureus [24]): > 512 µg/mL

Reference: PMC9405123, “Design, Synthesis and Mechanistic Studies of Novel Isatin-Pyrazole Hydrazone Conjugates as Selective and Potent Bacterial MetAP Inhibitors” (Antibiotics, 2022)
